Results published in US20220332700A1, “NOVEL APOPTOSIS SIGNAL-REGULATING KINASE 1 INHIBITORS” (MANKIND PHARMA LTD, priority 2019, published 2022).
Read-outs that look alike come from different tables or passages of the source.

How the values were obtained:
[1] = molecular target: T1, Human ASK1 (Homo sapiens, UniProt Q99683); assay: ASK1 Cell Based Assay (phospho p38 read out in hASK1 transfected HEK293T-AP1 cells)
T1 construct: expressed in transfected cells; host or cells: HEK293T-AP1
T1 sequence (Q99683 1-1374): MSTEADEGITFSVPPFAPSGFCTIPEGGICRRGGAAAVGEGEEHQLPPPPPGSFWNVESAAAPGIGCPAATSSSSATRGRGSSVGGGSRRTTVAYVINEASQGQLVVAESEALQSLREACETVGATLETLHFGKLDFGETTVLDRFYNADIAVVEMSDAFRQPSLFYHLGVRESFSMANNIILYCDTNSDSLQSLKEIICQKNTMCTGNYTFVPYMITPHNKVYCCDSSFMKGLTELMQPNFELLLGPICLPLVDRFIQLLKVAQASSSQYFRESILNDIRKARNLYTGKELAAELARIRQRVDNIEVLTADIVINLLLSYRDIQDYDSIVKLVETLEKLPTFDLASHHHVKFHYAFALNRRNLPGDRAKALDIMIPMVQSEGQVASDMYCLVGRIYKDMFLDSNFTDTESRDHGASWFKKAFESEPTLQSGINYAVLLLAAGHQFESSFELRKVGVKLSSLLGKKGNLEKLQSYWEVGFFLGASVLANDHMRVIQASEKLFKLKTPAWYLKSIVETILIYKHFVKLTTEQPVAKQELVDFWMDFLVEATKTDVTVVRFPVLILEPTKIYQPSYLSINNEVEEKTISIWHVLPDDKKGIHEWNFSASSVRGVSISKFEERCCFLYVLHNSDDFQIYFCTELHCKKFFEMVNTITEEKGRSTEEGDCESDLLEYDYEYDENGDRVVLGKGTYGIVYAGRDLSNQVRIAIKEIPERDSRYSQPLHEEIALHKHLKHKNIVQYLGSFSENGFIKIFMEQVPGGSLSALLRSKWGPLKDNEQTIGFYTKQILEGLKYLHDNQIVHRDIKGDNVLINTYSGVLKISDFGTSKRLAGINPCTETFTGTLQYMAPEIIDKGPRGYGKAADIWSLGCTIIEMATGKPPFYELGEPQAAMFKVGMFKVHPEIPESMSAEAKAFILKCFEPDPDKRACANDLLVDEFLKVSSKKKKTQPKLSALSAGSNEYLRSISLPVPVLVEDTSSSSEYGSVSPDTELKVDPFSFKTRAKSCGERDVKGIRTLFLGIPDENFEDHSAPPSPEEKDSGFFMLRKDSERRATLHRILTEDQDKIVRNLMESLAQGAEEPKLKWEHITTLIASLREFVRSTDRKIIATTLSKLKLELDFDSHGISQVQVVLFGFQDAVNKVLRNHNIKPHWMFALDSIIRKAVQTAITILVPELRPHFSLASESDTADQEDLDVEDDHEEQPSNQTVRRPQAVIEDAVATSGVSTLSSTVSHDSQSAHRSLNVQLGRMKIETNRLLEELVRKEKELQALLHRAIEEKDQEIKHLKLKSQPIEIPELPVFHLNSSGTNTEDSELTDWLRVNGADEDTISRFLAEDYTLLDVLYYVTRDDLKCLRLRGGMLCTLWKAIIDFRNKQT
Procedure, shortened: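 HEK293T-AP1 cells transfected with hASK1, after 24 h treated with compounds for 24 h (0.2% DMSO), then stimulated with 1 mM H2O2 for 1 h with compounds present.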

[2] = tested on: Male C57BL/6 mice; assay: Mouse model of Acetaminophen (APAP) induced Hepatotoxicity; format: in vivo; conditions: l0mpk and 30mpk; APAP 300 mg/kg i.p.; 6h post APAP; dose dependent, comparable with selonsertib
Description: Male C57BL/6 mice, 20 to 24 grams body weight at the time of study initiation, were acclimatized at least for 1-3 days prior to experiment initiation. Based on body weight, animal were randomized to different groups and kept for overnight fasting. Animals were treated with test compounds and vehicle for control group. After 30 minutes, APAP (300 mg/kg) was administered by intraperitoneal route (i.p). A vehicle control group was also included in the study as a vehicle control for test compound as well as APAP. All animals were bled 6h post APAP administration from the retro-orbital plexus into appropriately labeled tubes. Serum ALT levels were measured in all groups.

[3] = HEK293T-AP1 cells, 1 mM hydrogen peroxide, phospho p38, read-out: Cell Based Assay IC50
[4] = comparison with Selonsertib, read-out: ASK1 ph. P38 Cell based Assay (IC50)

SMILES | IC50 [1, 3] | IC50 [1, 4] | reduction in serum ALT levels compared to vehicle [2]
CC(C)n1cnnc1-c1cccc(N2CCN(c3ccc(N4CCOCC4)cc3)C2=O)n1 [Example 1043, 1-(6-(4-isopropyl-4H-1,2,4-triazol-3-yl)pyridin-2-yl)-3-(4-morpholinophenyl)imidazolidin-2-one] | 140 nM | 140 nM | significant reduction
CC(C)n1cnnc1-c1cccc(N2CCN(c3ccc(N4CC(C#N)C4)cc3)C2=O)n1 [Example 1071, 1-(4-(3-(6-(4-isopropyl-4H-1,2,4-triazol-3-yl)pyridin-2-yl)-2-oxoimidazolidin-1-yl)phenyl)azetidine-3-carbonitrile] | < 100 nM | 69 nM | significant reduction
CNC(=O)C1CCN(c2ccc(N3CCN(c4cccc(-c5nncn5C(C)C)n4)C3=O)cc2)CC1 [Example 1082, 1-(4-(3-(6-(4-isopropyl-4H-1,2,4-triazol-3-yl)pyridin-2-yl)-2-oxoimidazolidin-1-yl)phenyl)-N-methylpiperidine-4-carboxamide] | < 100 nM | 15 nM | significant reduction
CC(C)n1cnnc1-c1cccc(N2CCN(c3ccc(N4CCC(C(=O)N(C)C)CC4)cc3)C2=O)n1 [Example 1097, 1-(4-(3-(6-(4-isopropyl-4H-1,2,4-triazol-3-yl)pyridin-2-yl)-2-oxoimidazolidin-1-yl)phenyl)-N,N-dimethylpiperidine-4-carboxamide] | < 100 nM | 102 nM | significant reduction
